Like-named read-outs stand apart in the source and are kept apart here.
Tests used:
[1] = target: T1, EP3 membrane (EP3 receptor) (Homo sapiens, UniProt P43115); test: [3H]-PGE2 binding; EP3 competition binding (SPA)
T1 construct: purchased Millipore HTS092M
T1 sequence (P43115 1-390): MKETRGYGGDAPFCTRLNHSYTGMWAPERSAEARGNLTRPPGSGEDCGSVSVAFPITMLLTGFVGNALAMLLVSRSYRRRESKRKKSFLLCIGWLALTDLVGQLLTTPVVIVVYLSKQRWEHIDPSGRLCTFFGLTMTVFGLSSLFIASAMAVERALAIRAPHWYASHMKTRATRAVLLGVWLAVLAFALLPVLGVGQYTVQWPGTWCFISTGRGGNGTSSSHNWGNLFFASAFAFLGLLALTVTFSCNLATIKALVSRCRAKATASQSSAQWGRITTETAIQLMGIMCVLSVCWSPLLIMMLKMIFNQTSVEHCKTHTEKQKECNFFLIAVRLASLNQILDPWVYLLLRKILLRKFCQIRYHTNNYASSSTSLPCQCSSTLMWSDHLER
Procedure, shortened: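 Ki derived from one-site nonlinear regression of scintillation proximity counts after 2 h room-temperature equilibration. Serially diluted (1:3) compounds competed against [3H]-PGE2 (2 nM) for EP3 receptor membranes (2 μg/well) in pH 7.4 Tris buffer with 10 mM MgCl2, 1 mM EDTA, 0.1% DMSO.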

[2] = target: T2, CHO cells over-expressing the EP3 receptor (Homo sapiens, UniProt P43115); test: CHO cell cAMP assay; EP3 cAMP antagonist dose response (sulprostone reference), HTRF; type: cell-based; conditions: sulprostone 700 nM (EC80) and FSK 2 μM (EC70); read-out: CHO_cAMP IC50
T2 construct: expressed in transfected cells; host or cells: CHO cells
T2 sequence (P43115 1-390): T1 sequence (P43115 1-390)
Procedure, shortened: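 EP3-overexpressing CHO cells pre-incubated with test compound, then stimulated 30 min at 37 °C with FSK (2 μM, EC70) plus sulprostone (700 nM, EC80); antagonism seen as restored cAMP. cAMP measured by HTRF 665/615 ratio, converted via on-plate standard curve. IC50 from Hill fit of 11-point dosing.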

Ki [1] | IC50 [2] | Ki ([1]; unit nM) | Compound
2 nM | 0.009 µM |  | O=C(NC/C=C1\CCCc2cnn(-c3cccc(-c4ccc(F)cc4)c3)c21)NS(=O)(=O)c1cc(Cl)c(Cl)s1 [Compound #76, (E)-4,5-dichloro-N-((2-(1-(4′-fluoro-[1,1′-biphenyl]-3-yl)-1,4,5,6-tetrahydro-7H-indazol-7-ylidene)ethyl)carbamoyl)thiophene-2-sulfonamide]
1 nM | 0.009 µM |  | O=C(NC/C=C1\CCCc2cnn(-c3ccc(-c4ccccc4)cc3)c21)NS(=O)(=O)c1cc(Cl)c(Cl)s1 [Compound #99, (E)-N-((2-(1-([1,1′-biphenyl]-4-yl)-1,4,5,6-tetrahydro-7H-indazol-7-ylidene)ethyl)carbamoyl)-4,5-dichlorothiophene-2-sulfonamide]
7 nM | 0.017 µM |  | O=C(CC/C(F)=C1\COCc2cnn(Cc3ccc(Cl)cc3Cl)c21)NS(=O)(=O)c1cc(Cl)c(Cl)s1 [Compound #61, (E)-4-(1-(2,4-dichlorobenzyl)-1,4-dihydropyrano[4,3-c]pyrazol-7(6H)-ylidene)-N-((4,5-dichlorothiophen-2-yl)sulfonyl)-4-fluorobutanamide]
3 nM | 0.02 µM |  | O=C(NC/C(F)=C1\CCCc2cnn(-c3ccc(C(F)(F)F)cc3)c21)NS(=O)(=O)c1cc(Cl)c(Cl)s1 [Compound #125, (Z)-4,5-dichloro-N-((2-fluoro-2-(1-(4-(trifluoromethyl)phenyl)-1,4,5,6-tetrahydro-7H-indazol-7-ylidene)ethyl)carbamoyl)thiophene-2-sulfonamide]
1 nM | 0.005 µM |  | O=C(NC/C=C1\CCCc2cnn(-c3ccc(Cl)cc3Cl)c21)NS(=O)(=O)c1cc(Cl)c(Cl)s1 [Compound #84, (E)-4,5-dichloro-N-((2-(1-(2,4-dichlorophenyl)-1,4,5,6-tetrahydro-7H-indazol-7-ylidene)ethyl)carbamoyl)thiophene-2-sulfonamide]
 | 0.005 µM | 0.4 nM | O=C(NC/C(F)=C1\COCc2[nH]nc(Cc3ccc(Cl)cc3Cl)c21)NS(=O)(=O)c1cc(Cl)c(Cl)s1 [Compound #147, (E)-4,5-dichloro-N-((2-(3-(2,4-dichlorobenzyl)-1,7-dihydropyrano[3,4-c]pyrazol-4(5H)-ylidene)-2-fluoroethyl)carbamoyl)thiophene-2-sulfonamide]
2 nM | 0.004 µM |  | O=C(NC/C(F)=C1\CCCc2cnn(Cc3ccc(Cl)cc3Cl)c21)NS(=O)(=O)c1ccc(F)c(F)c1 [Compound #156, (Z)—N-((2-(1-(2,4-dichlorobenzyl)-1,4,5,6-tetrahydro-7H-indazol-7-ylidene)-2-fluoroethyl)carbamoyl)-3,4-difluorobenzenesulfonamide]
7 nM | 0.004 µM |  | O=C(NC/C(F)=C1/COCc2cnn(Cc3ccc(Cl)cc3Cl)c21)NS(=O)(=O)c1cc(Cl)c(Cl)s1 [Compound #60, (Z)-4,5-dichloro-N-((2-(1-(2,4-dichlorobenzyl)-1,4-dihydropyrano[4,3-c]pyrazol-7(6H)-ylidene)-2-fluoroethyl)carbamoyl)thiophene-2-sulfonamide]
750 nM | 11.1 µM |  | O=C(NC/C=C1\CCCc2cnn(-c3ncc(Br)cn3)c21)NS(=O)(=O)c1ccc(Cl)cc1 [Compound #94, (E)-N-((2-(1-(5-bromopyrimidin-2-yl)-1,4,5,6-tetrahydro-7H-indazol-7-ylidene)ethyl)carbamoyl)-4-chlorobenzenesulfonamide]
1 nM | 0.004 µM |  | O=C(CC/C(F)=C1\CCCc2cnn(Cc3ccc(Cl)cc3Cl)c21)NS(=O)(=O)c1cc(Cl)c(Cl)s1 [Compound #56, (Z)-4-(1-(2,4-dichlorobenzyl)-1,4,5,6-tetrahydro-7H-indazol-7-ylidene)-N-((4,5-dichlorothiophen-2-yl)sulfonyl)-4-fluorobutanamide]
10 nM | 0.012 µM |  | O=C(NC/C(F)=C1\CCCCc2cnn(Cc3ccc(Cl)cc3Cl)c21)NS(=O)(=O)c1cc(Cl)c(Cl)s1 [Compound #120, (Z)-4,5-dichloro-N-((2-(1-(2,4-dichlorobenzyl)-4,5,6,7-tetrahydrocyclohepta[c]pyrazol-8(1H)-ylidene)-2-fluoroethyl)carbamoyl)thiophene-2-sulfonamide]
100 nM | 0.798 µM |  | O=C(NC/C(F)=C1\CCCc2cnn(-c3ccc(C(F)(F)F)cc3)c21)NS(=O)(=O)c1ccc(Cl)s1 [Compound #124, (Z)-5-chloro-N-((2-fluoro-2-(1-(4-(trifluoromethyl)phenyl)-1,4,5,6-tetrahydro-7H-indazol-7-ylidene)ethyl)carbamoyl)thiophene-2-sulfonamide]
7 nM | 0.009 µM |  | Cc1ncc(S(=O)(=O)NC(=O)NC/C=C2\CCCc3cnn(Cc4ccc(Cl)cc4Cl)c32)s1 [Compound #139, (E)-N-((2-(1-(2,4-dichlorobenzyl)-1,4,5,6-tetrahydro-7H-indazol-7-ylidene)ethyl)carbamoyl)-2-methylthiazole-5-sulfonamide]
> 10000 nM | > 20 µM |  | O=C(NC/C(F)=C1/CCCc2cnn(-c3ccc(C(F)(F)F)cc3)c21)NS(=O)(=O)c1ccc2c(c1)OCCO2 [Compound #117, (E)-N-((2-fluoro-2-(1-(4-(trifluoromethyl)phenyl)-1,4,5,6-tetrahydro-7H-indazol-7-ylidene)ethyl)carbamoyl)-2,3-dihydrobenzo[b][1,4]dioxine-6-sulfonamide]

Further lines, the compound ahead of its results:

Compound | Ki [1] | IC50 [2] | Ki ([1]; unit nM)
COc1ccccc1S(=O)(=O)NC(=O)NC/C=C1\CCCc2cnn(Cc3ccc(Cl)cc3Cl)c21 [Compound #39, (E)-N-((2-(1-(2,4-dichlorobenzyl)-1,4,5,6-tetrahydro-7H-indazol-7-ylidene)ethyl)carbamoyl)-2-methoxybenzenesulfonamide] | 62 nM | 0.114 µM | 
COc1ccccc1S(=O)(=O)NC(=O)CC/C=C1\CCCc2cnn(Cc3ccc(Cl)cc3Cl)c21 [Compound #44, (E)-4-(1-(2,4-dichlorobenzyl)-1,4,5,6-tetrahydro-7H-indazol-7-ylidene)-N-((2-methoxyphenyl)sulfonyl)butanamide] | 95 nM | 0.177 µM | 
O=C(/C=C/C=C1\CCCc2cnn(Cc3ccc(Cl)cc3Cl)c21)NS(=O)(=O)c1cc(Cl)c(Cl)s1 [Compound #6, (E)-4-((E)-1-(2,4-dichlorobenzyl)-1,4,5,6-tetrahydro-7H-indazol-7-ylidene)-N-((4,5-dichlorothiophen-2-yl)sulfonyl)but-2-enamide] | 84 nM | 0.11 µM | 
O=C(CC/C=C1\CCCc2cnn(Cc3ccc(Cl)cc3Cl)c21)NS(=O)(=O)c1cc2ccccc2s1 [Compound #31, (E)-N-(benzo[b]thiophen-2-ylsulfonyl)-4-(1-(2,4-dichlorobenzyl)-1,4,5,6-tetrahydro-7H-indazol-7-ylidene)butanamide] | 7 nM | 0.013 µM | 
COc1ccc(S(=O)(=O)NC(=O)NC/C=C2\CCCc3cnn(Cc4ccc(Cl)cc4Cl)c32)cc1 [Compound #13, (E)-N-((2-(1-(2,4-dichlorobenzyl)-1,4,5,6-tetrahydro-7H-indazol-7-ylidene)ethyl)carbamoyl)-4-methoxybenzenesulfonamide] | 10 nM | 0.029 µM | 
COc1ccc(S(=O)(=O)NC(=O)C/C=C2\CCCc3cnn(Cc4ccc(Cl)cc4Cl)c32)cc1 [Compound #23, (E)-3-(1-(2,4-dichlorobenzyl)-1,4,5,6-tetrahydro-7H-indazol-7-ylidene)-N-((4-methoxyphenyl)sulfonyl)propenamide] | 256 nM | 0.453 µM | 
COc1ccc(Cl)cc1S(=O)(=O)NC(=O)CC/C=C1\CCCc2cnn(Cc3ccc(Cl)cc3Cl)c21 [Compound #38, (E)-N-((5-chloro-2-methoxyphenyl)sulfonyl)-4-(1-(2,4-dichlorobenzyl)-1,4,5,6-tetrahydro-7H-indazol-7-ylidene)butanamide] | 3 nM | 0.007 µM | 
O=C(NS(=O)(=O)c1ccc(Cl)cc1)OC/C=C1\CC(F)(F)Cc2cnn(Cc3ccc(Cl)cc3Cl)c21 [Compound #37, (E)-2-(1-(2,4-dichlorobenzyl)-5,5-difluoro-1,4,5,6-tetrahydro-7H-indazol-7-ylidene)ethyl ((4-chlorophenyl)sulfonyl)carbamate] | 108 nM | 0.087 µM | 
COc1ccc(Cl)cc1S(=O)(=O)NC(=O)NC/C=C1\CCCc2cnn(Cc3ccc(Cl)cc3Cl)c21 [Compound #43, (E)-5-chloro-N-((2-(1-(2,4-dichlorobenzyl)-1,4,5,6-tetrahydro-7H-indazol-7-ylidene)ethyl)carbamoyl)-2-methoxybenzenesulfonamide] | 3 nM | 0.008 µM | 
COc1ccc(S(=O)(=O)NC(=O)CC/C=C2\CCCc3cnn(Cc4ccc(Cl)cc4Cl)c32)cc1 [Compound #30, (E)-4-(1-(2,4-dichlorobenzyl)-1,4,5,6-tetrahydro-7H-indazol-7-ylidene)-N-((4-methoxyphenyl)sulfonyl)butanamide] | 26 nM | 0.035 µM | 

Reference: US20210253562A1, “ACYLSUFONAMIDE COMPOUNDS USEFUL AS EP3 RECEPTOR ANTAGONISTS” (Janssen Pharmaceutica NV, priority 2018, published 2021)
